In patent US11643421B2, “Process for the preparation of tricyclic PI3K inhibitor compounds and methods for using the same for the treatment of cancer” (priority 2015, dated 2023):

Tests used:
MST2 = MST2 (Homo sapiens, UniProt Q13188); assay: biochemical; settings: read-out: % inhib
mouse Bcrp1 = biological target: T1, mouse Bcrp1 (Mus musculus, UniProt Q7TMS5); assay: Transport assay in Bcrp1-MDCKII cell monolayers; type: in vitro ADME; settings: 2-hour incubation
T1 construct: host or cells: Bcrp1-MDCKII (canine kidney)
T1 sequence (Q7TMS5 whole entry): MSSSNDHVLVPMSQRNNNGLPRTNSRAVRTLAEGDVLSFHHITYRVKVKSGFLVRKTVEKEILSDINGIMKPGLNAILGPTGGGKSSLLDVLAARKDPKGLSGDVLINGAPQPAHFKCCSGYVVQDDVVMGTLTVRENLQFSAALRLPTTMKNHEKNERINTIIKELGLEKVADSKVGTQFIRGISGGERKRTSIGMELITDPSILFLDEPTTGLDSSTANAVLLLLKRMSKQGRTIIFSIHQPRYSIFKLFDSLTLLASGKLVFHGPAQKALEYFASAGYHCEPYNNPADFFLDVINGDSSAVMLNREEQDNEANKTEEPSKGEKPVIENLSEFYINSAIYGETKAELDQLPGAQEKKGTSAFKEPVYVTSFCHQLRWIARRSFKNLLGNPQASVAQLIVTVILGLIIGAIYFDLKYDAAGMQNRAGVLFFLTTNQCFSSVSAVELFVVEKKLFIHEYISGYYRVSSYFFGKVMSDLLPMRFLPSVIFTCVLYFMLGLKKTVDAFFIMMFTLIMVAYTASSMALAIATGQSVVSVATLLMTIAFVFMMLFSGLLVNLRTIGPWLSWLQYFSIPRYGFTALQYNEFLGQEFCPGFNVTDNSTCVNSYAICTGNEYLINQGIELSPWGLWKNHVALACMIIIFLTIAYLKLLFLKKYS
Protocol: (§1) MDR1-MDCKI cells were licensed from the NCI (National Cancer Institute, Bethesda, Md.) and Bcrp1-MDCKII, BCRP-MDCKII and Mdr1a-LLC-PK1 cells were obtained from the Netherlands Cancer Institute (Amsterdam. The Netherlands). […] The compound was dissolved in transport buffer consisting of Hank's balanced salt solution (HBSS) with 10 mM HEPES (Invitrogen Corporation, Grand Island, N.Y.). Lucifer Yellow (Sigma-Aldrich, St. Louis, Mo.) was used as the paracellular and monolayer integrity marker. […] The efflux ratio (ER) was calculated (Papp, B-A/Papp, A-B).

mouse P-gp (mdr1a) = mouse P-gp (mdr1a) (Mus musculus, UniProt P21447); assay: Transport assay in Mdr1a-LLC-PK1 cell monolayers; type: in vitro ADME; settings: Mdr1a-LLC-PK, 2-hour incubation
Protocol: as §1

[1] = In vivo pharmacokinetics IV and PO; set-up: species or system Male Sprague-Dawley rats; settings: Rat
Protocol: (§2) The hepatocyte stability of compound IIIat was evaluated across preclinical species. Certain in vivo pharmacokinetic parameters were also evaluated. […] Male Sprague-Dawley rats, female CD-1 mice, male cynomolgus monkeys and beagle dogs were dosed intravenously with 1 mg/kg of compound IIIat prepared in 60% PEG400/10% Ethanol. Compound IIIat was administered orally (PO) at the indicated dose in 0.5% methylcellulose with 0.2% Tween 80 (MCT).

EphA4 = EphA4 (Homo sapiens, UniProt P54764); assay: biochemical; settings: read-out: % inhib
GCK = GCK (Homo sapiens, UniProt Q12851); assay: biochemical; settings: read-out: % inhib
GCK, sequence (Q12851 whole entry): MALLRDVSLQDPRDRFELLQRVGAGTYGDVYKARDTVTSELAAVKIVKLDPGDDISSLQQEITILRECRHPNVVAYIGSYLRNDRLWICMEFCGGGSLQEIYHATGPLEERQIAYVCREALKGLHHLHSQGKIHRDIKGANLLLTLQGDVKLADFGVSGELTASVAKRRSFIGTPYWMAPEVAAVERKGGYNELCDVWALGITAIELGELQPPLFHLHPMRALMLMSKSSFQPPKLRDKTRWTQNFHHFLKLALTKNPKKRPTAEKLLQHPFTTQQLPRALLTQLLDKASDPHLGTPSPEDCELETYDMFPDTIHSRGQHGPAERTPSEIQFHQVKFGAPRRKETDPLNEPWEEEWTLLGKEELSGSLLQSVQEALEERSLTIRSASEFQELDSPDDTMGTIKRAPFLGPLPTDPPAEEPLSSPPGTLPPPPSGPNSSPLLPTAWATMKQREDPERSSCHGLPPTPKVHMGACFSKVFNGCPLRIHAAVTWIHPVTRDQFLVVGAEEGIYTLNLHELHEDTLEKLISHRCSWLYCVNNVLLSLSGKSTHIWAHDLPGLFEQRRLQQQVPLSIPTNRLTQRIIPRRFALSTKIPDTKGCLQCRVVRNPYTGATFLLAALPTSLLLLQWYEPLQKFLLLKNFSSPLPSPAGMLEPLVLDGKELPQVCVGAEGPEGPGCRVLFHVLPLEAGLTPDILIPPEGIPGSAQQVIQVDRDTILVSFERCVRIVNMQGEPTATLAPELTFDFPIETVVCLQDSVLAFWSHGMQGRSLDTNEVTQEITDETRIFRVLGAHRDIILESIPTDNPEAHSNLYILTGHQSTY

Ron = Ron (Homo sapiens, UniProt Q04912); assay: biochemical; settings: read-out: % inhib
Ron, sequence (Q04912 25-1400, species assumed): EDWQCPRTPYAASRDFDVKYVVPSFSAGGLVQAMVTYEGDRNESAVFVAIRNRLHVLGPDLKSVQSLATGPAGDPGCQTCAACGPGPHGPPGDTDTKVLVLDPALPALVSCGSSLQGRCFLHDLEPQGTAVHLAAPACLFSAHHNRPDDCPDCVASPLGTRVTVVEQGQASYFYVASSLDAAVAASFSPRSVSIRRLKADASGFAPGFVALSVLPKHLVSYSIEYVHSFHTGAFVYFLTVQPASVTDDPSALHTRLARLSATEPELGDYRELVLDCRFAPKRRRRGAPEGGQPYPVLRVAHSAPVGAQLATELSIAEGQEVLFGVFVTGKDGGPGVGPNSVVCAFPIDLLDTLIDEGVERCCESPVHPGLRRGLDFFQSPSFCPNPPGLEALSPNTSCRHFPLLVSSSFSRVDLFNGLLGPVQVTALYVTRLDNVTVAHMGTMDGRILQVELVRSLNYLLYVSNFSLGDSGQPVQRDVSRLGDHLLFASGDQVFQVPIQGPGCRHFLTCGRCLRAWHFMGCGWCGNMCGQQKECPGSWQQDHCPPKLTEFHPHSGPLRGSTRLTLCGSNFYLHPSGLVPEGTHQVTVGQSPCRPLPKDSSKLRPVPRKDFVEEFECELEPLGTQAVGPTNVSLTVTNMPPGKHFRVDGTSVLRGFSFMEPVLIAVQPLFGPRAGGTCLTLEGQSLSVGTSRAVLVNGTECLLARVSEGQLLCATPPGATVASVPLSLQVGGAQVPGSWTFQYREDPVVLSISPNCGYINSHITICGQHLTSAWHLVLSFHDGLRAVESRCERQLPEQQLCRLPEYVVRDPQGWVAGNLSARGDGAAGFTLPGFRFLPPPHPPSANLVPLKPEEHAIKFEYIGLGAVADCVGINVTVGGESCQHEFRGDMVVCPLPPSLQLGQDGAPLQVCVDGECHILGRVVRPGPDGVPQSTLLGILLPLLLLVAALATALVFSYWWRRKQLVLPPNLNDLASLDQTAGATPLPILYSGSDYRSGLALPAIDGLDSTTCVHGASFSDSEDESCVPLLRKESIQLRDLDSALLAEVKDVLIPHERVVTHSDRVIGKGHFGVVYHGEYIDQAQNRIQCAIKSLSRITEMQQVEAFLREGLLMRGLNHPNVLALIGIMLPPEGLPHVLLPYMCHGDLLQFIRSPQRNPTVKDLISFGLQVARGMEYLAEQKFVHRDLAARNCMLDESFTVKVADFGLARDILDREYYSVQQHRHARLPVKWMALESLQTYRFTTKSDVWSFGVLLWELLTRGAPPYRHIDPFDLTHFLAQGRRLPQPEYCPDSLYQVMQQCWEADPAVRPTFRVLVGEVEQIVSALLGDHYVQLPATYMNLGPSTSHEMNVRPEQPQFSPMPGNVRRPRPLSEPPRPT

CaMKII_beta = CaMKII_beta (Homo sapiens, UniProt Q13554); assay: biochemical; settings: read-out: % inhib
Frk = Frk (Homo sapiens, UniProt P42685); assay: biochemical; settings: read-out: % inhib
[2] = MALDI imaging of brain distribution, U87 orthotopic model; type: in vivo, female nude mice; settings: 15 mg/kg PO, 1 hour post dose
Protocol: Mice were euthanized at 1 and 6 hours post-dose via exsanguination by perfusion under anesthesia. Brains were excised, flash frozen in liquid N2 and stored in a −80° C. freezer until analyzed. Fresh frozen tissue sections were obtained on a cryomicrotome (Leica CM3050S, Buffalo Grove, Ill.) at 12 μm thickness and thaw-mounted onto indium tin oxide coated glass slides (Bruker Daltonics, Billerica, Mass.). Tissue sections were an analyzed by imaging MALDI MS, providing signal intensities (and not absolute quantitation), followed by cresyl violet staining for histological interrogation.
For MALDI MAS analysis, a 40 mg/mL solution of 2,5-dihydroxybenzoic acid (Sigma-Aldrich, St. Louis, Mo.) was prepared in methanol:water (70:30 v/v). […] Matrix solution was homogenously spray-coated onto the tissue using a HTX TM-Sprayer (HTX technologies. Chapel Hill, N.C.). Matrix-coated tissue sections were transferred to the MALDI mass spectrometer (SolariX 7T FT-ICR, Bruker Daltonics, Bremen, Germany) for imaging analysis. […] Laser intensity and number of shots were optimized for sensitivity of the parent drug (1200 shots) with ion detection collected over the mass range of m/z 150-3000.
Following completion of the imaging experiments, matrix coaling was removed by rinsing the glass slide in 100% methanol for 30 seconds or until the entire matrix was visibly removed. […] Microscope images were obtained on an Olympus BX51 (Tokyo, Japan) at 10× magnification and stitched using MicroSuite Analytical v3.0 software (Olympus, Tokyo, Japan). Subsequently, stained images were co-registered to the optical images in FlexImaging for visualization and annotation of tumor and non-tumor regions for the drug images.
To assess drug distribution, imaging MALDI MS data from U87 and GS2 tumor models were co-registered to the cresyl violet stained microscope images in FlexImaging Regions of interest (ROIs) that were selected based on the anatomical features defined in the histological image including tumor and non-tumor regions. Drug intensity for each pixel within the defined ROI was extracted and exported. […] Histogram plots were created in GraphPad Prism 5 to visualize the distribution of pixel intensity frequencies.

[3] = In vivo pharmacokinetics IV and PO; set-up: species or system beagle dogs; settings: Dog
Protocol: as §2

NEK2 = NEK2 (Homo sapiens, UniProt P51955); assay: biochemical; settings: read-out: % inhib
NEK2, sequence (P51955 whole entry): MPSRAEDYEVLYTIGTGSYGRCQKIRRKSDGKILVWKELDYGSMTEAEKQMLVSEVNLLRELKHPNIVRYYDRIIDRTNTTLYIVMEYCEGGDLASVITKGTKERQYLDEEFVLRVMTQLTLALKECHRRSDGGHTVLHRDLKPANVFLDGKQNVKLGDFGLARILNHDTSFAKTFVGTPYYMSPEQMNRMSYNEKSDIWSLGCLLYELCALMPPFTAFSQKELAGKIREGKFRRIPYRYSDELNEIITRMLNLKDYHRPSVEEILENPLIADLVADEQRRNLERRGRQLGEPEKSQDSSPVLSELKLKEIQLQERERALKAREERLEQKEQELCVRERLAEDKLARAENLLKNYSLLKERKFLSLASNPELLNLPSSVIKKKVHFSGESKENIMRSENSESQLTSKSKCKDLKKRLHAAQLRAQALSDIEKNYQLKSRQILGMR

ErbB4 = ErbB4 (Homo sapiens, UniProt Q15303); assay: biochemical; settings: read-out: % inhib
ErbB4, sequence (Q15303 26-1308): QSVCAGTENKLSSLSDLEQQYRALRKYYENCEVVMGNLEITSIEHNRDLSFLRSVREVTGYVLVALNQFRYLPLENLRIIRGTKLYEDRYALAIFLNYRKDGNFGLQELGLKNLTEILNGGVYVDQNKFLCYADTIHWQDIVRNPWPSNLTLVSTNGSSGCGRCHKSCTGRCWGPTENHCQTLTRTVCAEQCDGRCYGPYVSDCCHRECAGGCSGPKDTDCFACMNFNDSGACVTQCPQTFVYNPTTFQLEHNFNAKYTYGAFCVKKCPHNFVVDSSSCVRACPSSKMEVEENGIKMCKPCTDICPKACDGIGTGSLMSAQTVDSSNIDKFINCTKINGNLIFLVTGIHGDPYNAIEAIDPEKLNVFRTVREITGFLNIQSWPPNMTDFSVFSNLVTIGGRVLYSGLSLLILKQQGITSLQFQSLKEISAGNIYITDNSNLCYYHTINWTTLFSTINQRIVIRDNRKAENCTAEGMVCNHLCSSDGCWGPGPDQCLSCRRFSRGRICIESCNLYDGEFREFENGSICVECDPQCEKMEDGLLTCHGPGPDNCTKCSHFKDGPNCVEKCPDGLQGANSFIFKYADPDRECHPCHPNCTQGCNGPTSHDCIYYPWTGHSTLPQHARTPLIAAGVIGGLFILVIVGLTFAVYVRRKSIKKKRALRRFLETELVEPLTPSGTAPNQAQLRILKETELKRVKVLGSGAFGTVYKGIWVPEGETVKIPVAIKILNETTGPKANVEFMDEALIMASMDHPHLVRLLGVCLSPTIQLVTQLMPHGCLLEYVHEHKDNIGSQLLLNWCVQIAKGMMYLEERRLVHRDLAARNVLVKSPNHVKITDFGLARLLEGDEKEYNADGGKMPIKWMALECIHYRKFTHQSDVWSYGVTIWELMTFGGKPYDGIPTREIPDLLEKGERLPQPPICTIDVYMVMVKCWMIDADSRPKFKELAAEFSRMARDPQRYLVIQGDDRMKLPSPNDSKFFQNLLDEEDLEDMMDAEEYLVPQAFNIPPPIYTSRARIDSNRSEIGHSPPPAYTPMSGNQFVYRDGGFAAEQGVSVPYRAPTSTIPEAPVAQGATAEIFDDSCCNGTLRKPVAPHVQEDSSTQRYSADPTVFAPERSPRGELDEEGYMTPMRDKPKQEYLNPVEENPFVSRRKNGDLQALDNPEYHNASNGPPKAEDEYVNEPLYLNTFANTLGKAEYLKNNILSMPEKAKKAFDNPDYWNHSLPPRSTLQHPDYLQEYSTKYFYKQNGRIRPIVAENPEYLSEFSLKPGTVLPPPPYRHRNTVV

[4] = Plasma protein binding by equilibrium dialysis; type: in vitro ADME; settings: mouse, plasma (pooled), pH 7.4, n=3, mean±standard deviation, read-out: free fraction (%) in mouse plasma
Protocol: Plasma samples were equilibrated with phosphate-buffered saline (pH 7.4) at 37° C. in 90% humidity and 5% CO2 for 4 hours. […] Incubations were performed in triplicate. Parameters are presented as mean±standard deviation.

MST2, sequence (Q13188 whole entry, species assumed): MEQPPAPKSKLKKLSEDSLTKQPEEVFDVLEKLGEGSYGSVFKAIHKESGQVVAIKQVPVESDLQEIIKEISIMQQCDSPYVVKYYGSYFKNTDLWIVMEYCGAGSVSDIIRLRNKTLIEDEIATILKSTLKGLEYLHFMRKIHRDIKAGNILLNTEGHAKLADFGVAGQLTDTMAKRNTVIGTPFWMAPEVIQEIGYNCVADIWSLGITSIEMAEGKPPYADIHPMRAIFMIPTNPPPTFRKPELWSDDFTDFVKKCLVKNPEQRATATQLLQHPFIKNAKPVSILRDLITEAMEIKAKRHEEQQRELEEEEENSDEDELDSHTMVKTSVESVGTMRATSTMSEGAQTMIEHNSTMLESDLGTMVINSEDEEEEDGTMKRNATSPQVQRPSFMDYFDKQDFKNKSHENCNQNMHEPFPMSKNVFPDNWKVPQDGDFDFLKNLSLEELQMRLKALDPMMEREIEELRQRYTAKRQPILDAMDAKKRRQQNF

Compound `CC1(C)OCCn2c1nc1c(N3CCOCC3)nc(-c3cnc(N)nc3)nc12` [GDC-0084, 5-(6,6-dimethyl-4-morpholino-8,9-dihydro-6H-[1,4]oxazino[3,4-e]purin-2-yl)pyrimidin-2-amine] has an inhibition at 1 µM (MST2) of -2%, a Papp A→B at 2 h, 5 μM (mouse Bcrp1) of 17.6 ± 2.1 ×10⁻⁶ cm/s and a Papp B→A at 2 h, 5 μM (mouse P-gp (mdr1a)) of 19.4 ± 1.3 ×10⁻⁶ cm/s. The “In vivo Cl” value ([1]; IV 1 mg/kg) was 28 mL/min/kg, the Cmax ([1]; PO 5 mg/kg in MCT) was 1.1 μm and the F % ([1]; PO 5 mg/kg in MCT) was 77%. For the same compound, the inhibition at 1 µM (EphA4) was 3%, the inhibition at 1 µM (GCK) was 0.9% and the inhibition at 1 µM (Ron) was 8%. The inhibition at 1 µM (CaMKII_beta) was 0.2%, the inhibition at 1 µM (Frk) was 8% and the “distribution in brain and intracranial tumors (MALDI images)” value ([2]; U87 and GS2 models) was “distributed readily and quite evenly throughout the brain”. The “mean pixel intensity (MALDI imaging)” value ([2]; U87 tumors) was 0.54, the “mean pixel intensity (MALDI imaging)” value ([2]; healthy brain of U87 tumor-bearing mice) was 0.54 and the AUC ([3]; PO 2 mg/kg in MCT) was 1.6 μm·h. For the same compound, the Cmax ([3]; PO 2 mg/kg in MCT) was 0.2 μm, the clearance ([3]; beagle, plasma, IV 1 mg/kg, read-out: In vivo Cl) was 26 mL/min/kg and the Vd ([3]; beagle, plasma, IV 1 mg/kg, read-out: Vss) was 3 L/kg. It also gave a bioavailability ([3]; beagle, plasma, PO 2 mg/kg in MCT) of 40%, an inhibition at 1 µM (NEK2) of 20% and an inhibition at 1 µM (ErbB4) of 7%. It also gave a fraction unbound at 4 h, 5 µM [4] of 0.295 ± 0.027.
